# Test results: PMC11547840, “The Intestinal Barrier Protective Effect of Indole Aldehyde Derivatives on Acute Toxoplasma gondii Infection” (Molecules, 2024)
# What was measured:
# IEC-6 cells = assay: MTT cytotoxicity assay in IEC-6 cells; type: cell-based; details: MTT; concentration required to reduce IEC-6 cell growth by 50%; 24 h treatment; read-out: IC50 in IEC-6 Cells
# Procedure: (§1) Anti-T. gondii activity and cytotoxicity of indole derivatives in vitro were evaluated by MTT assay (Solarbio, Beijing, China) using a slightly modified version of the procedure of Shang et al.. IEC-6 cells were seeded onto the 96-well plates (2 × 10^3/well) for 24 h to obtain the full monolayer, and then the host cells were infected with T. gondii (parasite: cell = 3:1) in complete medium. After 24 h, cells were washed to remove any extra parasites and then incubated with different concentrations (20, 200, 500 and 1000 μm) of […]. […] After 24 h of treatment, MTT solution was added directly to the culture wells and then incubated for 4 h at 37 °C. The optical absorbance was measured at a wavelength of 548 nm using a microplate reader (SpectraMax M2, Molecular Devices, Sunnyvale, CA, USA). Giemsa staining was used to observe the changes in cell morphology and the proliferation of T. gondii-infected cells. IEC-6 (1 × 10^5 cells/well) was inoculated into 24-well plates containing round coverslip, and after the cells were attached to the wall, T. gondii (3 × 10^5 cells/well) was added to infect the cells for 3 h. After the culture medium was discarded, PBS was added to remove the uninvaded tachyzoites. […] After discarding the supernatant, the cells were washed with PBS and completely aspirated, and then fixed by adding 0.5 mL of methanol for 3 min. Giemsa staining solution was added and shaken slightly to make the staining uniform. Coverslips were rinsed with distilled water to replace the staining solution, and finally, the slices were sealed with neutral gum and air-dried.
# [1] = Small intestine histology and pathology scoring of T. gondii-infected mice; type: in vivo; details: 100 mg/kg oral once a day for 6 days
# Source text: (§2) For the in vivo study, KM female mice were divided into groups consisting of six animals each and then intraperitoneally injected with 2 × 10^3 tachyzoites. […] On the last day, heart blood samples were collected after anesthesia to separate the serum, and after mice were sacrificed by cervical dislocation, mice were dissected to obtain organs and tissues. The tachyzoites were harvested from mice peritoneal cavities to determine the level of tachyzoite proliferation. The peritoneal fluid was collected twice; the first time, it was centrifuged at 500 rpm for 10 min, then the supernatant was centrifuged at 2500 rpm for 20 min, discarded, and the worm precipitate was collected at the bottom, and mixed with an appropriate amount of physiological saline. A total of 10 μL of T. gondii suspension was mixed with 10 μL of 4% Trypan blue staining solution in a 1.5 mL centrifuge tube.
# The histology research includes apparent pathological change score, H&E staining and histopathological scores of tissue, as shown in Table 4 and Table 5. In detail, the obtained small intestine tissues were fixed in formalin solution and embedded in paraffin wax after gradual dehydration with different concentrations of ethanol. The paraffin fast was sectioned to a thickness of 5 μm, rehydrated and stained with hematoxylin and eosin, respectively, and finally permeabilized with xylene and sealed with neutral gum. A light microscope was used to observe and collect pictures, and the degree of damage to the small intestinal tissues was assessed according to Chiu’s six-grade scale.
# [2] = tested on: small intestine of mice with T. gondii infection; assay: Small intestine and serum biochemical parameters (GSH, MDA, NO, DAO) of T. gondii-infected mice; type: in vivo; details: 100 mg/kg oral once a day for 6 days
# Source text: as §2
# The GSH was measured according to the method in [58]. The intestine homogenate was mixed with half volume trichloroacetic acid (20%, w/v) and centrifuged at 4000 rpm for 10 min. Then, phosphate buffer (phosphate 0.3 mol/L, pH 7.5) and 5,5-dithio-bis-(2-nitrobenzoic acid) (0.04%, w/v) were added to the separated supernatant and mixed thoroughly. After 5 min at room temperature, the absorbance was measured at 412 nm.
# MDA was measured by the standard method with minor modifications. The small intestine homogenate supernatant was mixed with thiobarbituric acid (0.5%, w/v) and heated in boiling water bath for 1 h, then cooled quickly and centrifuged at 6000 rpm for 10 min; the absorbance of pink colored supernatant was measured at 532 nm. Tetraethoxypropane replaced the intestine homogenate in the standard sample.
# The Greiss method was used to determine the NO content in small intestine tissues and cells. The above small intestine tissue homogenate or IEC-6 cell supernatant was centrifuged at 4 °C and 1500 rpm for 15 min, and the absorbance was measured at 540 nm by adding equal amounts of Griess A and B reagents to the supernatant. The standard used in the NO standard curve was sodium nitrite, and the NO content in the samples was calculated by substituting the absorbance values of the samples into the regression equation of the standard curve.
# The DAO evaluation experimental method of Xin Y et al. was adopted, in which mouse heart blood was taken from a 1.5 mL centrifuge tube and centrifuged at 4 °C and 3000× g for 10 min, and the upper layer of serum was taken for measurement. Another 1.5 mL tube was taken and 600 μL of phosphate buffer, 20 μL of horseradish peroxidase, 20 μL of dianisidine dihydrochloride hydrochloride, and 20 μL of 1,5-pentanediamine hydrochloride were added. After that, 100 μL of serum samples to be tested was added, mixed well and heated at 37 °C for 18 h. The absorbance was measured at 436 nm. […]. A total of 100 μL of distilled water was used in the blank tube instead of serum, and the standard used in the standard curve was diamine oxidase. The absorbance value of the experimental samples was substituted into the regression equation of the standard curve to calculate the content of DAO in the serum samples.
# T. gondii [3] = assay: MTT anti-T. gondii activity in T. gondii-infected IEC-6 cells; type: cell-based, Toxoplasma gondii; details: MTT; concentration required to reduce T. gondii-infected IEC-6 cell growth by 50%; 24 h treatment; read-out: IC50 in T. gondii
# Procedure: as §1
# T. gondii [4] = assay: Giemsa staining: cell infection rate and intracellular tachyzoites in IEC-6 cells; type: cell-based, Toxoplasma gondii; details: IEC-6 cells infected 3 h, drug 12 h at the IC50 value of the cells
# Procedure: as §1
# T. gondii [5] = assay: In vivo anti-T. gondii activity, peritoneal tachyzoite count by Trypan Blue; set-up: species or system Toxoplasma gondii; details: peritoneal cavity of KM female mice, i.p. 2 × 10^3 tachyzoites; 100 mg/kg oral once a day for 6 days; Toxo 12.28 ± 0.39
# Source text: as §2
# [6] = tested on: mice with T. gondii infection; assay: Survival rate of mice with T. gondii infection; type: in vivo; details: acute infection; Toxo group died from day seven
# Procedure: All data were expressed as mean ± standard deviation (S.D.) in triplicate. Statistical analyses and graphs were performed using SPSS 16.0 software (SPSS Inc., Chicago, IL, USA) and GraphPad Prism 5.0 (GraphPad Software Inc., San Diego, CA, USA). The method of Kaplan and Meier was used to compare the survival rates of the studied groups. A value of p < 0.05 was considered statistically significant.
substance,measurement,setting,value
"Spiramycin [Spy, reference compound]",IC50,IEC-6 cells,246 ± 5.9 µM
same,"intestinal barrier damage induced by T. gondii infection (histology, H&E)",[1],showed no abnormalities in the small intestinal tissues
same,MDA level in small intestine tissue,[2],effective inhibition of the MDA increase
same,IC50,T. gondii [3],219 ± 6 µM
same,cell infection rate,T. gondii [4]; Toxo group 49.2%,27.7%
same,number of intracellular tachyzoites,T. gondii [4]; Toxo group 254,173
same,Number of Tachyzoites,T. gondii [5],9.22 ± 1.73 ×10^6
same,survival of mice with T. gondii infection,[6],extended the survival time
